Results from patent US20110287948A1, “MEASUREMENT OF MATERIAL PROPERTIES AND RELATED METHODS AND COMPOSITIONS BASED ON CYTOADHERENCE” (Massachusetts Institute of Technology, priority 2010, published 2011).
“Also recorded” adds a separate entry of the source.

Legend:
[1] = test system: P. falciparum-infected RBCs (iRBCs) and co-cultured uninfected RBCs (uRBCs); experiment: Microfluidic deformability cytometer: RBC mobility after artesunate drug treatment; format: cell-based, human; conditions: for separation resolution between iRBCs and uRBCs after drug treatment: after artesunate treatment vs untreated
Source text: The device used in this example comprises a series of equally spaced triangular pillar arrays with pore sizes ranging from 2.5 to 4 um (FIG. 55A illustrates the case of 3 um pore size). Compared to the diameter of an average RBC (˜7.5 um), the smaller pore sizes are designed to impose similar mechanical constraints on the cells as if they are passing through blood capillaries and splenic meshwork. Driven by constant pressure gradient in the sub-Pascal-per-micrometer range, RBCs are able to deform substantially at each constriction and traverse along the channel. The dynamic deformability of RBCs is then characterized by their mobility: the ability to deform repeatedly in order to pass through multiple constrictions in series.
FIG. 55A depicts an experimental schematic of the microfluidic system. A heating chamber (Olympus) was mounted to the inverted microscope stage. Four heaters for the inner water bath, microscope stage, chamber top, and lens were designed to accurately control the ambient temperature inside the chamber. The PDMS-glass bonded device consists of the inlet and outlet reservoirs and main channels with triangular pillar arrays. It was placed inside the heating chamber with only the inlet reservoir connecting to an external syringe via a 20 cm-tubing. The reservoirs were 500×500 μm^2 squares with 20 μm-interspacing cylindrical pillar arrays; these pillar arrays could pre-filter white blood cells from whole blood, allowing only RBCs to pass through the main channels. Each of the parallel channels was 10 pillars wide and 200 pillars long. Along the flow direction, the inter-pillar spacing was 10 μm. This spacing allows deformed cells to recover and ready for subsequent deformations. Perpendicular to the flow direction, the pore size varied from 2.5 to 4 μm for different channels. Cells experience different levels of deformation when passing through these pores.
FIG. 55B presents microscopic screenshots illustrating both iRBCs and co-cultured uRBCs moving in the microchannel at different temperature conditions. The uninfected cells appear as dark shadows indicated by blue arrows, and the infected cells with thiazole orange (TO) staining appear as bright dots indicated by white arrows. The mobility of individual cells can then be derived by recording the time period for each cell passing through 10 constrictions in series (i.e. equivalent to 200 μm distance travelled). In this example, cell mobility is used to characterize the dynamic deformability of individual RBCs.
The deformability of both iRBCs and uRBCs were measured at 2, 4 and 6 hours after artesunate drug treatment (FIG. 60). A synchronized culture of rings with ˜15% parasitemia was resuspended at 0.1% hematocrit in malaria culture medium containing 0.01, 0.05 or 0.1 μg/ml of artesunate.
Layout program CleWin3.0 was used to design the microfluidic device, which consists of a 500×500 μm^2 inlet reservoir, a 500×500 μm^2 outlet reservoir, and parallel capillary channels with triangular pillar arrays (FIG. 55A). Three different pore-size of 2.5, 3.0 and 4.0 μm were designed for the capillary channels to test optimum deformation condition for the experiment. A silicon mold of the device was made using standard silicon processing techniques. The photolithography step was done using a 5× reduction step-and-repeat projection stepper (Nikon NSR2005i9, Nikon Prevision) and reactive-ion etching (RIE) techniques were used to give the mold a final depth of 4.2 μm. Final device was then casted from the silicon mold using polydimethylsiloxane (PDMS) and was sealed by a glass slide using oxygen plasma.
P. falciparum 3D7A parasites (from Malaria Research and Reference Reagent Source, American Type Culture Collection) were cultured in leukocyte-free human RBCs (Research Blood Components, Brighton Mass.) in RPMI 1640 complete medium as described (Trager and Jensen J. parasitol. 2005). […]

RBCs = experiment: Deformability cytometer: velocity of glutaraldehyde-treated RBCs through constrictions; format: cell-based, human
Source text: The device design includes periodically spaced, triangle-shaped pillars and the gaps between these pillars result in well-controlled constrictions for RBCs to pass. The height of the device was set to 4.2 μm. RBCs were forced to assume a flat orientation before entering each constriction. This height, in addition to filters at the reservoirs, prevented white blood cells from entering the device, and permitted diluted whole blood to be used directly.
A mold of the device was made on a silicon wafer using photolithography and reactive-ion etching techniques. A 5× reduction step-and-repeat projection stepper (Nikon NSR2005i9, Nikon Precision) was used for patterning. The spacing between pillars was 3 μm, and the depth of the device was 4.2 μm. The device was made using standard PDMS casting protocols and bonded to a glass slide.
In experiments involving blood, 1 μl of whole blood (−50% hematocrit) was diluted in 100 μl of the PBS-pluronic-BSA solution for all of the experiments. In experiments involving parasites that express GFP, no further treatment was performed. In experiments involving healthy RBCs, 1 μl of whole blood (Research Blood Components, Brighton, Mass.), 1 μl of 50 μg/ml of Cell Tracker Orange (Invitrogen, Carlsbad, Calif.), and 98 μl of PBS were mixed with the indicated concentration of glutaraldehyde and allowed to sit for 30 minutes. The sample was then washed 3 times with the PBS-Pluronic-BSA solution. In experiments involving reticulocytes, 1 μl of whole blood, 89 μl of the PBS-Pluronic-BSA solution, and 10 μl of 1×10^−6M thiazole orange were mixed and allowed to sit for 20 minutes before starting experiments. Videos were obtained in which reticulocytes appear as uniformly fluorescent cells under the GFP filter set, while mature RBCs appear as shadows.
The PBS-Pluronic-BSA solution was pumped through the device for 30 minutes to coat the device walls with Pluronic and BSA. The RBC-PBS-Pluronic-BSA suspension was then injected into the device. Differences in pressure between the two reservoirs were generated hydrostatically by a difference in water column height. […]

Row | Structure (SMILES) | mobility decrease at earlier time points ([1]; 2 and 4 hours after artesunate treatment) | mobility decrease ([1]; 6 hours after artesunate treatment, 0.01, 0.05 or 0.1 μg/ml, iRBCs and uRBCs) | dose dependence of mobility changes ([1]; after 4 hour drug treatment, dosage range 0.01 to 0.1 μg/ml) | separation resolution between iRBCs and uRBCs after drug treatment [1] | separation resolution between iRBCs and uRBCs after drug treatment ([1]; listed as Artesunate) | effect on RBC deformability (stiffening) ([1]; iRBCs and uRBCs after artesunate treatment) | passage of RBCs into the channel (RBCs; glutaraldehyde concentrations greater than 0.003%) | RBCs that passed through the channels (RBCs; glutaraldehyde less than 0.002%, treatment for 30 minutes) | RBC stiffness / velocity with increasing concentration (RBCs; increasing glutaraldehyde concentration, 30 minutes, approx. 0.61 Pa/μm)
1 | C[C@H]1[C@H](OC(=O)CCC(=O)O)O[C@@H]2O[C@@]3(C)CC[C@H]4[C@H](C)CC[C@@H]1[C@@]24OO3 [artesunate] | smaller and less pronounced mobility decrease | 30%-50 | no statistically significant dose dependence | almost doubled | doubled | stiffening effect on both iRBCs and uRBCs; also recorded: the drop in iRBC deformability is more precipitous than in uRBC | – | – | –
2 | O=CCCCC=O [glutaraldehyde] | – | – | – | – | – | – | most RBCs were held up at the entrance to the channel, unable to deform | more than 95% | progressively stiffer with decreasing velocity
